Literature values in patent US6811967B2 (The University of Manitoba, priority 2001, dated 2004).

Experiments:
human SSAT = biological target: T1, human SSAT (Homo sapiens, UniProt P21673); details: human SSAT expressed in E. coli (Parry et al. 1995)
T1 construct: host or cells: E. coli

[1] = Sprague-Dawley rats, same therapeutic dose (Goralski et al. 1999)
[2] = weak base, primary amine

T1 sequence (P21673 whole entry): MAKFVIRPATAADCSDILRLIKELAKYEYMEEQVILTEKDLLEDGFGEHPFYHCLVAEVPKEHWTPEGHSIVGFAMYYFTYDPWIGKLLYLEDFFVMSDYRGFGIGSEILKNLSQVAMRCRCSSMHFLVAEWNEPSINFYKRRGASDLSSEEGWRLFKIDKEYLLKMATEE

Row | Compound | acetylation by SSAT (human SSAT) | urinary excretion of acetylamantadine [1] | pKa [2]
1 | CCCCNCCCN [N-(n-butyl)-1,3-diaminopropane] | acetylated by SSAT |  | 
2 | NC12CC3CC(CC(C3)C1)C2 [amantadine, 1-adamantanamine] |  | did not excrete acetylamantadine | 10.1
3 | NCCCNCCS [WR1065, S-2-(3-aminopropylamino) ethanethiol] | acetylated by SSAT |  | 
4 | N=C(N)NCCCCCCC(=O)NC(O)C(=O)NCCCCNCCCN (centres unmarked) [1-deoxyspergualin] | acetylated by SSAT |  | 
